One series has as its system Gram negative bacteria. The note with it: cited from earlier work.
Series [1] deals with human hepatocyte cell line (HepG2). The note with it: 24 h.
Method: Cell counting kit-8 (Sigma, CCK-8) assays were performed to assess the effect of compounds on cell viability. The assay is based on the reduction of a water-soluble tetrazolium salt (WST-8) by cellular dehydrogenases to a formazan dye which can be detected spectroscopically. 96-well plates were seeded with the human hepatocyte cell line (HepG2) at approximately 8×10^3 cells per well in Eagle's Minimum Essential Medium (EMEM) with Earle's salts and sodium bicarbonate supplemented with 10% heat-inactivated foetal bovine serum 2 mM glutamine and 1% non-essential amino acids (NEAA). The following day serial dilutions of compounds (dissolved and diluted in DMSO) were added to the cells in duplicates. Control wells included an ‘untreated’ control where cells were grown in the presence of 1% DMSO and a ‘medium only’ control (plus 1% DMSO). After 24 hours CCK-8 reagent (10 μl) was added to each well and cell viability was assessed by measuring the absorbance at a wavelength of 450 nm after 2-3h hours. Only living cells can reduce the tetrazolium salts into coloured formazan products. Results were expressed as 50% growth inhibition (TD50) values compared to ‘untreated’ control.
For series [2], the system named is S. aureus (Oxford strain). Briefly: Growth assay for S. aureus (MIC). Format: cell-based. The note with it: TSB, 37° C., 22-24 hours. The protocol: (§1) Stock solution of the test compounds (20 mg/ml) in dimethyl sulfoxide (DMSO) were serially diluted in DMSO and each diluted compound added in duplicate to a 96-well plate to a final DMSO concentration of 2% (v/v). An overnight culture of S. aureus (Oxford strain) grown in tryptic soy broth (TSB) was diluted to approximately 5×10^7 cfu/ml and 150 μl of this sample was added to each well of the 96-well plates. Control wells included an ‘untreated’ control with bacteria in TSB in the presence of 2% DMSO and a negative sample (containing 150p1 TSB growth media in the presence of 2% DMSO). Plates were incubated in a shaking incubator at 37° C. for 22-24 hours and bacterial growth assessed by absorbance at a wavelength of 595 nm. The minimum inhibitory concentration (MIC) was defined as the lowest concentration of compound that inhibited growth compared to the no-treatment control.

Series [3] concerns P.aeruginosa (ATCC 27853). Briefly: Growth assay variation, P. aeruginosa (MIC). The format is cell-based. The note with it: ATCC 27853, CaMHB, incubation without shaking. The protocol:
as §1
P.aeruginosa (ATCC 27853): use of 1/100 overnight dilution to set up assay, medium used: Cation adjusted Mueller Hinton broth (CaMHB); incubation without shaking.

The test system of the next series is E.coli (ATCC 25922). The experiment in a line: Growth assay variation, E. coli (MIC). Format: cell-based. The note with it: ATCC 25922, Luria broth, incubation without shaking. The protocol: as §1
(§2) Klebsiella pneumoniae, Acinetobacter baumannnii or E.coli (ATCC 25922): use of 1/100 overnight dilution to set up assay, medium used: Luria broth (LB); incubation without shaking.

A further series relates to Klebsiella pneumoniae. The experiment in a line: Growth assay variation, Klebsiella pneumoniae (MIC). The format is cell-based. The note with it: Luria broth, incubation without shaking. The protocol: as §1, §2

As to `CC[P](CC)(CC)=[Au][S][C@@H]1O[C@H](COC(C)=O)[C@@H](OC(C)=O)[C@H](OC(C)=O)[C@H]1OC(C)=O` [Auranofin], the “activity against the majority of Gram negative bacteria” value with Gram negative bacteria is recorded as “not been shown to have any significant activity”.

As to `Cc1nnc([S][Au]=[P](C)(C)C)n1C` [Compound 1], in series [1], the “HepG2 cell TD50” value came out at 2 µg/mL.

`CNC(=O)C[S][Au]=[P](C)(C)C` [Compound 2]: in series [1], the “HepG2 cell TD50” value came to 6 µg/mL.

Take `CCOC(=O)CNC(=O)[C@H](C[S][Au]=[P](C)(C)C)NC(=O)CC[C@H](NC(C)=O)C(=O)OCC` [Compound 3]: in series [1], the “HepG2 cell TD50” value is 32 µg/mL.

Regarding `C[P](C)(C)=[Au][S]c1ncco1` [Compound 4], the “HepG2 cell TD50” value in series [1] is 4 µg/mL.

Turning to `COc1ccc([S][Au]=[P](C)(C)C)cc1OC` [Compound 5], the “HepG2 cell TD50” value in series [1] amounted to 3 µg/mL.

Regarding `C[P](C)(C)=[Au][S]c1ccccc1C(=O)O` [Compound 6], the “HepG2 cell TD50” value in series [1] is 11.5 µg/mL.

For `C[P](C)(C)=[Au][S]c1ncc[nH]1` [Compound 7], the “HepG2 cell TD50” value in series [1] was determined as 6 µg/mL.

On to `C[P](C)(C)=[Au][S]c1cccc(C(F)(F)F)c1` [Compound 8], for which the “HepG2 cell TD50” value in series [1] was 3 µg/mL.

As to `C[P](C)(C)=[Au][S]c1ccccc1C(F)(F)F` [Compound 9], in series [1], the “HepG2 cell TD50” value is 3 µg/mL.

As to `COc1cccc([S][Au]=[P](C)(C)C)c1` [Compound 10], the “HepG2 cell TD50” value in series [1] came out at 2 µg/mL.

Take `C[P](C)(C)=[Au][S]c1ccc(S(C)(=O)=O)cc1` [Compound 11]: the “HepG2 cell TD50” value in series [1] was determined as 2 µg/mL.

For `CC[P](C)(C)=[Au][S]c1ncco1` [Compound 12], in series [1], the “HepG2 cell TD50” value stood at 5 µg/mL.

For `C[P](C)(C)=[Au][S]c1ccc(C(F)(F)F)cn1` [Compound 13], the “HepG2 cell TD50” value in series [1] came to 2.5 µg/mL.

For `C[P](C)(C)=[Au][S]c1cc(C(F)(F)F)ccn1` [Compound 14], in series [1], the “HepG2 cell TD50” value stood at 3 µg/mL.

For `C[P](C)(C)=[Au][S]c1nnn[nH]1` [Compound 15], in series [1], the “HepG2 cell TD50” value was 23 µg/mL.

On to `C[P](C)(C)=[Au][S]c1ccc(C(N)=O)cn1` [Compound 16], for which the “HepG2 cell TD50” value in series [1] was 17 µg/mL.

For the molecule `COc1ccc([S][Au]=[P](C)(C)C)cc1` [Compound 17], the “HepG2 cell TD50” value in series [1] worked out at 3.5 µg/mL.

Turning to `C[P](C)(C)=[Au][S]c1ccc(F)cc1C(=O)O` [Compound 18], the “HepG2 cell TD50” value in series [1] stood at 18 µg/mL.

As to `CC(=O)Oc1ccc([S][Au]=[P](C)(C)C)cc1OC(C)=O` [Compound 23], in series [1], the “HepG2 cell TD50” value was found to be 2 µg/mL.

Consider `C[P](C)(C)=[Au][S]c1cccc(C(=O)O)c1` [Compound 25], for which the “HepG2 cell TD50” value in series [1] was 22 µg/mL.

In the case of `C[P](C)(C)=[Au][S]c1ccc(C(=O)O)cc1` [Compound 26], the “HepG2 cell TD50” value in series [1] is 13 µg/mL.

As for `C[P]1(=[Au][S]c2ccccc2C(=O)O)CCCCC1` [Compound 27], the “HepG2 cell TD50” value in series [1] worked out at 22 µg/mL.

For the molecule `C[P]1(=[Au][S]c2ccccc2C(=O)O)CCCC1` [Compound 28], the “HepG2 cell TD50” value in series [1] was 11 µg/mL.

In the case of `C[P]1(=[Au][S]c2ccccc2C(=O)O)CCOCC1` [Compound 29], the “HepG2 cell TD50” value in series [1] was 35 µg/mL.

As to `C[P]1(=[Au][S]c2ccc(F)cc2C(=O)O)CCCCC1` [Compound 30], the “HepG2 cell TD50” value in series [1] was 19 µg/mL.

For the molecule `C[P]1(=[Au][S]c2nnn[nH]2)CCCCC1` [Compound 31], the “HepG2 cell TD50” value in series [1] stood at 45 µg/mL.

As for `C[P]1(=[Au][S]c2nnn[nH]2)CCCC1` [Compound 32], the “HepG2 cell TD50” value in series [1] is 11 µg/mL.

In the case of `Cn1nnnc1C[S][Au]=[P](C)(C)C` [Compound 33], in series [1], the “HepG2 cell TD50” value worked out at 4 µg/mL.

For the molecule `C[P](C)(C)=[Au][S]c1cccc(S(C)(=O)=O)c1` [Compound 34], in series [1], the “HepG2 cell TD50” value came out at 1 µg/mL.

With `C[P](C)(C)=[Au][S]C1CCC(F)(F)CC1` [Compound 35], in series [1], the “HepG2 cell TD50” value was 4 µg/mL.

As to `CC[P](C)(C)=[Au][S]c1ccccc1C(=O)O` [Compound 36], the “S. aureus MIC” value in series [2] is listed as <0/8.

Turning to `CP1CCS(=O)(=O)CC1.[Cl][Au]` [Compound I-44, 4-Methyl-[1,4]sulfonylphosphinane gold(I) chloride], the “P. aeruginosa MIC” value in series [3] is 6.3 to 50 µg/mL. The “E. coli MIC” value in the series with E.coli (ATCC 25922) was 25 to 100 µg/mL. The “K. pneumoniae MIC” value in the series with Klebsiella pneumoniae is 50 to 100 µg/mL. For the same molecule, the “S. aureus MIC” value in series [2] was 6.3 to 25 µg/mL.

Consider “Dimethyl[2-(methyl)oxazole]phosphine gold(I) chloride [Compound I-50]”, for which the “P. aeruginosa MIC” value in series [3] lay within 12.5 to 25 µg/mL. Moreover, the “E. coli MIC” value in the series with E.coli (ATCC 25922) was 6.3 to 12.5 µg/mL. The “K. pneumoniae MIC” value in the series on Klebsiella pneumoniae fell in the range of 12.5 to 25 µg/mL. Also, the “S. aureus MIC” value in series [2] fell in the range of 1.6 to 3.1 µg/mL.

Consider “Dimethyl[2-(methyl)thiazole]phosphine gold(I) chloride [Compound I-49]”, for which the “P. aeruginosa MIC” value in series [3] worked out at 25 µg/mL. Besides, in the series with E.coli (ATCC 25922), the “E. coli MIC” value is 6.3 to 12.5 µg/mL. Also, in the series with Klebsiella pneumoniae, the “K. pneumoniae MIC” value is 12.5 to 25 µg/mL. Further, in series [2], the “S. aureus MIC” value was no more than 0.8 to 1.6 µg/mL.

These data come from patent US20180360856A1, “ANTI-BACTERIAL COMPOUNDS” (Auspherix Limited, priority 2015, published 2018).
